Patent US20070249637A1, “Inhibitors Of Hepatitis C Virus Protease, And Compositions And Treatments Using The Same” (priority 2004, published 2007)
Values joined by “and” are separate entries in the source; they are usually repeats but may differ in a detail not shown here. Equal entries are not always repeated.

Experiments:
[1] = target: T1, full-length NS3-NS4A enzyme (Hepatitis C virus genotype 1a, UniProt P27958); test: HCV protease assay (continuous FRET, full-length enzyme); format: biochemical; settings: 3 nM full-length NS3-NS4A, 3 uM depsipeptide FRET substrate S1; competitive inhibition fit
T1 construct: 3 nM full-length NS3-NS4A enzyme
T1 sequence (P27958 1027-1657): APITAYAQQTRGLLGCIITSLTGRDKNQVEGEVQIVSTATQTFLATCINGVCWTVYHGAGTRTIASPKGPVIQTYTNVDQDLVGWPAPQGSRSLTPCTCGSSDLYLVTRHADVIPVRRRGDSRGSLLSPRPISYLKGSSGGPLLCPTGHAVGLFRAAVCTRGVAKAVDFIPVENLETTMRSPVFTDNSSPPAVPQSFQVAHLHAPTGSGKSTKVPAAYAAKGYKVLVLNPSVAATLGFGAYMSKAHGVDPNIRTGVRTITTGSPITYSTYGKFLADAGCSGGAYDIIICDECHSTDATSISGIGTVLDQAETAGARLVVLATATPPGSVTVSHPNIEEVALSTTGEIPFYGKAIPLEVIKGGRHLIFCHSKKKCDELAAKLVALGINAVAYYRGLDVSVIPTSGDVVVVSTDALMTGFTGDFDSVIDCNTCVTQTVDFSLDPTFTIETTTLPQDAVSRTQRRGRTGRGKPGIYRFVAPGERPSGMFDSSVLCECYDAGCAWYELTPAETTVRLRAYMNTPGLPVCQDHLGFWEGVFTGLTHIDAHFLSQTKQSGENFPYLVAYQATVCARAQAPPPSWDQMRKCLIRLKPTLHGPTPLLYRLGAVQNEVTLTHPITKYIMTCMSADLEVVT
T1 sequence (P27958 1658-1711): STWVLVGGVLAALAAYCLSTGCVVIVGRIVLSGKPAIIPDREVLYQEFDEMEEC
Protocol: HCV protease activity and compound inhibition was monitored using a continuous, fluorescence resonance energy transfer (FRET) assay. Test compounds at various concentrations were added to assay buffer (50 mM MOPS pH 7.5, 50 mM NaCl, 20% glycerol, 0.025% Triton-X 100, 1 mM tris(2-carboxyethyl)phosphine) containing 3 uM depsipeptide FRET substrate S1 (Anaspec) (see Taliani et al. Analytical Biochemistry, 240, 60-67 (1996)) in a white, non-binding 96-well plate (Corning). The reaction was started by the addition of 3 nM full-length NS3-NS4A enzyme. The increase in fluorescence intensity following peptide cleavage was monitored using a Safire fluorescence plate reader (Tecan). The excitation and emission wavelengths were 340 nm and 500 nm, respectively. Inhibition constants (KI) were calculated by non-linear regression analysis using an equation derived for competitive inhibition.

in vitro = format: cell-based; settings: human; 50% reduction of firefly luciferase expression, 3 days incubation; read-out: Replicon CC50
Protocol: (§1) Cell-based antiviral activity was evaluated in the previously described HCV dual reporter subgenomic replicon system (the '075 application). With this system, the effects of a compound on both HCV replication and cell viability can be simultaneously determined by measuring the intracellular levels of two separate reporter proteins. The dicistronic selectable replicon contains the Renilla luciferase gene such that Renilla luciferase activity within stably-transfected cells serves as a marker of HCV replication. The firefly luciferase gene is stably integrated into and expressed by the Huh-7 host cells. Since firefly luciferase activity is dependent upon cellular transcription and translation, firefly luciferase activity serves as an indicator of cell viability.
(§2) The dual reporter selectable replicon cell line (B6b) was maintained in DMEM supplemented with 10% FBS, L-glutamine, non-essential amino acids, penicillin, streptomycin, and selection agents (200 ug/ml G418 and 6 ug/ml blastocidin). On the first day of the experiment, cells were trypsinized, washed, and diluted in medium lacking the selection agents. Cells were transferred to 96-well, black-walled, clear bottom plates at a density of 2×10^4 cells in 150 ul of medium per well. Cells were allowed to settle for 60 to 90 minutes while compounds were being prepared. Each compound was initially diluted to a 4× working stock (2.56% DMSO in tissue culture medium) that was then serially diluted nine times in half log increments in medium with 2.56% DMSO. Fifty microliters of each dilution were then added in triplicate to the plated cells in order to obtain final IX compound concentrations with 0.64% DMSO. Typical testing concentrations ranged from 320 uM to 10 nM. Control wells containing 0.64% DMSO without compound were also included on each plate.
(§3) After 3 days of incubation under humidity at 37° C. with 5% CO2, plates were microscopically examined for compound precipitation and cell death. Tissue culture medium was then aspirated and cells were lysed with 20 ul of 1× Passive Lysis Buffer (Promega, Madison, Wis.). Reporter activity was measured using a MicroBeta Jet 1450 (Perkin Elmer, Boston, Mass.) following sequential 50 ul additions of firefly and Renilla luciferase substrates as described in the manufacturers protocol (Promega). Luciferase activities were expressed as a percentage of the signals observed in the compound-free control wells. The amount of compound required to reduce Renilla luciferase expression by 50% is defined as the 50% effective concentration, or EC50. The amount of compound that reduces firefly luciferase expression by 50% is defined as the 50% cytotoxic concentration, or CC50. A therapeutic index (TI) is calculated by dividing the CC50 by the EC50.

[2] = tested on: HCV dual reporter subgenomic replicon (B6b cell line); test: HCV dual reporter subgenomic replicon assay, Renilla luciferase (antiviral activity); format: cell-based; settings: Hepatitis C virus, 72 h; 50% reduction of Renilla luciferase expression, 3 days incubation
Protocol: The compounds described herein were tested for antiviral activity utilizing a dual-reporter replicon assay as described in U.S. patent application Ser. No. 10/818,075 (the '075 application), filed Apr. 5, 2004. The disclosure of the '075 application is incorporated herein.
as §1, §2, §3

## O=C(N[C@H]1CCCCC/C=C\[C@@H]2C[C@@]2(C(=O)O)NC(=O)[C@@H]2C[C@@H](Oc3nc(-c4ccccn4)nc4ccsc34)CN2C1=O)OC1CCC1 [Example 43, (2R,6S,12Z,13aS,14aR,16aS)-6-{[(cyclobutyloxy)carbonyl]amino}-5,16-dioxo-2-[(2-pyridin-2-ylthieno[3,2-d]pyrimidin-4-yl)oxy]-1,2,3,6,7,8,9,10,11,13a,14,15,16,16a-tetradecahydrocyclopropa[e]pyrrolo[1,2-a][1,4]diazacyclopentadecine-14a(5H)-carboxylic acid]
[1]
  Ki: 20 nM
In vitro
  CC50 at 3 days: > 320000 nM
[2]
  EC50: 190 nM

## CC(C)(C)OC(=O)N[C@H]1CCCCC/C=C\[C@@H]2C[C@@]2(C(=O)O)NC(=O)[C@@H]2C[C@@H](Oc3nc(-c4ccccn4)nc4sccc34)CN2C1=O [Example 29, (2R,6S,12Z,13aS,14aR,16aS)-6-[(tert-butoxycarbonyl)amino]-5,16-dioxo-2-[(2-pyridin-2-ylthieno[2,3-d]pyrimidin-4-yl)oxy]-1,2,3,6,7,8,9,10,11,13a,14,15,16,16a-tetradecahydrocyclopropa[e]pyrrolo[1,2-a][1,4]diazacyclopentadecine-14a(5H)-carboxylic acid]
[1]
  Ki: 42 nM
In vitro
  CC50 at 3 days: 13000 nM
[2]
  EC50: 420 nM

## O=C(N[C@H]1CCCCC/C=C\[C@@H]2C[C@@]2(C(=O)O)NC(=O)[C@@H]2C[C@@H](Oc3cc(-c4ccccn4)nc4ccsc34)CN2C1=O)OC1CCC1 [Example 13, (2R,6S,12Z,13aS,14aR,16aS)-6-{[(Cyclobutyloxy)carbonyl]amino}-5,16-dioxo-2-[(5-pyridin-2-ylthieno[3,2-b]pyridin-7-yl)oxy]-1,2,3,6,7,8,9,10,11,13a,14,15,16,16a-tetradecahydrocyclopropa[e]pyrrolo[1,2-a][1,4]diazacyclopentadecine-14a(5H)-carboxylic acid]
[1]
  Ki: 9 nM
In vitro
  CC50 at 3 days: 161000 nM
[2]
  EC50: 310 nM

## Cc1cc(-c2nc(O[C@@H]3C[C@H]4C(=O)N[C@]5(C(=O)O)C[C@H]5/C=C\CCCCC[C@H](NC(=O)OC(C)(C)C)C(=O)N4C3)c3sccc3n2)n(C)n1 [Example 61, (2R,6S,12Z,13aS,14aR,16aS)-6-[(Tert-butoxycarbonyl)amino]-2-{[2-(1,3-dimethyl-1H-pyrazol-5-yl)thieno[3,2-d]pyrimidin-4-yl]oxy}-5,16-dioxo-1,2,3,6,7,8,9,10,11,13a,14,15,16,16a-tetradecahydrocyclopropa[e]pyrrolo[1,2-a][1,4]diazacyclopentadecine-14a(5H)-carboxylic acid]
[1]
  Ki: 11.3 nM
In vitro
  CC50 at 3 days: 244000 nM
[2]
  EC50: 870 nM

## CC(C)(C)OC(=O)N[C@H]1CCCCC/C=C\[C@@H]2C[C@@]2(C(=O)O)NC(=O)[C@@H]2C[C@@H](Oc3cc(-c4ccccn4)nc4ccsc34)CN2C1=O [Example 14, (2R,6S,12Z,13aS,14aR,16aS)-6-[(Tert-butoxycarbonyl)amino]-5,16-dioxo-2-[(5-pyridin-2-ylthieno[3,2-b]pyridin-7-yl)oxy]-1,2,3,6,7,8,9,10,11,13a,14,15,16,16a-tetradecahydrocyclopropa[e]pyrrolo[1,2-a][1,4]diazacyclopentadecine-14a(5H)-carboxylic acid]
[1]
  Ki: 8.9 nM
In vitro
  CC50 at 3 days: 92000 nM
[2]
  EC50: 610 nM

## CC(C)Nc1cccc(-c2nc(O[C@@H]3C[C@H]4C(=O)N[C@]5(C(=O)O)C[C@H]5/C=C\CCCCC[C@H](NC(=O)OC(C)(C)C)C(=O)N4C3)c3sccc3n2)n1 [Example 79, (2R,6S,12Z,13aS,14aR,16aS)-6-[(Tert-butoxycarbonyl)amino]-2-({2-[6-(isopropylamino)pyridin-2-yl]thieno[3,2-d]pyrimidin-4-yl}oxy)-5,16-dioxo-1,2,3,6,7,8,9,10,11,13a,14,15,16,16a-tetradecahydrocyclopropa[e]pyrrolo[1,2-a][1,4]diazacyclopentadecine-14a(5H)-carboxylic acid]
[1]
  Ki: 11.3 nM
In vitro
  CC50 at 3 days: 212000 nM
[2]
  EC50: 180 nM

## O=C(CC1CC1)N[C@H]1CCCCC/C=C\[C@@H]2C[C@@]2(C(=O)O)NC(=O)[C@@H]2C[C@@H](Oc3nc(-c4ccccn4)nc4sccc34)CN2C1=O [Example 31, (2R,6S,12Z,13aS,14aR,16aS)-6-[(Cyclopropylacetyl)amino]-5,16-dioxo-2-[(2-pyridin-2-ylthieno[2,3-d]pyrimidin-4-yl)oxy]-1,2,3,6,7,8,9,10,11,13a,14,15,16,16a-tetradecahydrocyclopropa[e]pyrrolo[1,2-a][1,4]diazacyclopentadecine-14a(5H)-carboxylic acid]
[1]
  Ki: 39 nM
In vitro
  CC50 at 3 days: 168000 nM
[2]
  EC50: 250 nM

## Cc1cc(-c2nc(O[C@@H]3C[C@H]4C(=O)N[C@]5(C(=O)O)C[C@H]5/C=C\CCCCC[C@H](NC(=O)CC5CC5)C(=O)N4C3)c3sccc3n2)n(C)n1 [Example 63, (2R,6S,12Z,13aS,14aR,16aS)-6-[(cyclopropylacetyl)amino]-2-{[2-(1,3-dimethyl-1H-pyrazol-5-yl)thieno[3,2-d]pyrimidin-4-yl]oxy}-5,16-dioxo-1,2,3,6,7,8,9,10,11,13a,14,15,16,16a-tetradecahydrocyclopropa[e]pyrrolo[1,2-a][1,4]diazacyclopentadecine-14a(5H)-carboxylic acid]
[1]
  Ki: 8.1 nM
In vitro
  CC50 at 3 days: > 320000 nM
[2]
  EC50: 11 nM

## Cc1cc(-c2nc(O[C@@H]3C[C@H]4C(=O)N[C@]5(C(=O)O)C[C@H]5/C=C\CCCCC[C@H](NC(=O)OC5CCCC5)C(=O)N4C3)c3sccc3n2)n(C)n1 [Example 58, (2R,6S,12Z,13aS,14aR,16aS)-6-{[(Cyclopentyloxy)carbonyl]amino}-2-{[2-(1,3-dimethyl-1H-pyrazol-5-yl)thieno[3,2-d]pyrimidin-4-yl]oxy}-5,16-dioxo-1,2,3,6,7,8,9,10,11,13a,14,15,16,16a-tetradecahydrocyclopropa[e]pyrrolo[1,2-a][1,4]diazacyclopentadecine-14a(5H)-carboxylic acid]
[1]
  Ki: 2.3 nM
In vitro
  CC50 at 3 days: 216000 nM
[2]
  EC50: 62 nM

## Cn1ccnc1-c1cc2nccc(O[C@@H]3C[C@H]4C(=O)N[C@]5(C(=O)O)C[C@H]5/C=C\CCCCC[C@H](NC(=O)CC5CC5)C(=O)N4C3)c2s1 [Example 91, (2R,6S,12Z,13aS,14aR,16aS)-6-[(Cyclopropylacetyl)amino]-2-{[2-(1-methyl-1H-imidazol-2-yl)thieno[3,2-b]pyridin-7-yl]oxy}-5,16-dioxo-1,2,3,6,7,8,9,10,11,13a,14,15,16,16a-tetradecahydrocyclopropa[e]pyrrolo[1,2-a][1,4]diazacyclopentadecine-14a(5H)-carboxylic acid]
[1]
  Ki: 91 nM and 70 nM
In vitro
  CC50 at 3 days: > 320000 nM
[2]
  EC50: 290 nM

## O=C(CC1CC1)N[C@H]1CCCCC/C=C\[C@@H]2C[C@@]2(C(=O)O)NC(=O)[C@@H]2C[C@@H](Oc3nc(-c4ccccn4)nc4ccsc34)CN2C1=O [Example 46, (2R,6S,12Z,13aS,14aR,16aS)-6-[(Cyclopropylacetyl)amino]-5,16-dioxo-2-[(2-pyridin-2-ylthieno[3,2-d]pyrimidin-4-yl)oxy]-1,2,3,6,7,8,9,10,11,13a,14,15,16,16a-tetradecahydrocyclopropa[e]pyrrolo[1,2-a][1,4]diazacyclopentadecine-14a(5H)-carboxylic acid]
[1]
  Ki: 15 nM
In vitro
  CC50 at 3 days: > 320000 nM
[2]
  EC50: 92 nM
